Experiments:
ZAP-70 = molecular target: T1, ZAP-70 (Homo sapiens, UniProt P43403); assay: ZAP-70 inhibition assay (coupled enzyme assay); assay type: biochemical; conditions: 100 μM ATP, 60 nM ZAP-70
T1 sequence (P43403 1-619): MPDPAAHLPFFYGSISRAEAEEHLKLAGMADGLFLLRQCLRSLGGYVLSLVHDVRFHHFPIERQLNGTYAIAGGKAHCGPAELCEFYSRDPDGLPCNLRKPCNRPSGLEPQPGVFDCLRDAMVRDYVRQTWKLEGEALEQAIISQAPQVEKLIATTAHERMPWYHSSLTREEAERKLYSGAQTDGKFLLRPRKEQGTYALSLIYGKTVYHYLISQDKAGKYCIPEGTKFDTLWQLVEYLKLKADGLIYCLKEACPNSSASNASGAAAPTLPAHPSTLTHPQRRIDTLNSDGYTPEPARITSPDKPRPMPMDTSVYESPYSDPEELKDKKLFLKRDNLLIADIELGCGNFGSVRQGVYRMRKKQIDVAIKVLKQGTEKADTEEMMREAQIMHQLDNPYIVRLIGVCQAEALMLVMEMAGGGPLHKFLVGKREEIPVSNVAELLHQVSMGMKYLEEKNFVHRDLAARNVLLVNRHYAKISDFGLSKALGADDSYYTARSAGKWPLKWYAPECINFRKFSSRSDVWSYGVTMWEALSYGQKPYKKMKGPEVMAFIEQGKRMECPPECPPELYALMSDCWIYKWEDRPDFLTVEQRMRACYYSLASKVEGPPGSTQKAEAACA
Experimental: Compounds were screened for their ability to inhibit ZAP-70 using a standard coupled enzyme assay (Fox et al., Protein Sci., (1998) 7, 2249). Assays were carried out in a mixture of 100 mM HEPES 7.5, 10 mM MgCl2, 25 mM NaCl, 2 mM DTT and 3% DMSO. Final substrate concentrations in the assay were 100 μM ATP (Sigma Chemicals) and 20 μM peptide (poly-4EY, Sigma Chemicals). Assays were carried out at 30° C. and 60 nM ZAP-70. Final concentrations of the components of the coupled enzyme system were 2.5 mM phosphoenolpyruvate, 300 μM NADH, 30 μg/ml pyruvate kinase and 10 μg/ml lactate dehydrogenase.
An assay stock buffer solution was prepared containing all of the reagents listed above, with the exception of ZAP-70 and the test compound of interest. 55 μl of the stock solution was placed in a 96 well plate followed by addition of 2 μl of DMSO stock containing serial dilutions of the test compound (typically starting from a final concentration of 15 μM). […] Initial reaction rates were determined with a Molecular Devices SpectraMax Plus plate reader over a 15 minute time course. IC50 and Ki data were calculated from non-linear regression analysis using the Prism software package (GraphPad Prism version 3.0a for Macintosh, GraphPad Software, San Diego Calif., USA).

CDK-2/Cyclin A = CDK-2/Cyclin A (Homo sapiens, UniProt P24941); assay: CDK2 inhibition assay (coupled enzyme assay); assay type: biochemical; conditions: 100 μM ATP, 25 nM CDK-2/Cyclin A
Experimental: Compounds were screened for their ability to inhibit CDK-2/Cyclin A using a standard coupled enzyme assay (Fox et al (1998) Protein Sci 7, 2249). Reactions were carried out in 100 mM HEPES pH 7.5, 10 mM MgCl2, 25 mM NaCl, 1 mM DTT and 1.5% DMSO. Final substrate concentrations in the assay were 100 μM ATP (Sigma chemicals) and 100 μM peptide (American Peptide, Sunnyvale, Calif.). Assays were carried out at 30° C. and 25 nM CDK-2/Cyclin A. Final concentrations of the components of the coupled enzyme system were 2.5 mM phosphoenolpyruvate, 350 μM NADH, 30 μg/ml pyruvate kinase and 10 μg/ml lactate dehydrogenase.
An assay stock buffer solution was prepared containing all of the reagents listed above, with the exception of CDK-2/Cyclin A, DTT and the test compound of interest. 56 μl of the test reaction was placed in a 384 well plate followed by addition of 1 μl of 2 mM DMSO stock containing the test compound (final compound concentration 30 μM). The plate was preincubated for ˜10 minutes at 30° C. and the reaction initiated by addition of 10 μl of enzyme (final concentration 25 nM). Rates of reaction were obtained using a BioRad Ultramark plate reader (Hercules, Calif.) over a 5 minute read time at 30° C. Compounds showing >50% inhibition versus standard wells containing DMSO, but no compound, were titrated and IC50's determined using a similar protocol.

Row | Ki (ZAP-70) | Ki (CDK-2/Cyclin A) | Compound
1 | < 1000 nM | < 1000 nM | CN1C(=O)COc2ccc(-c3ccnc(Nc4ccc(S(N)(=O)=O)cc4)n3)cc21 [IVa-24]
2 | < 1000 nM | < 1000 nM | NS(=O)(=O)c1ccc(Nc2nccc(-c3ccc4c(c3)NC(=O)CO4)n2)cc1 [IVa-23]

Source: patent US7259161B2, “Compositions useful as inhibitors of JAK and other protein kinases” (Vertex Pharmaceuticals Incorporated, priority 2002, dated 2007)
